≈ marks a conversion by molar mass, not a printed value.
Tests used:
[1] = test system: Mycobacterium tuberculosis; format: functional; settings: H37Ra ATCC 25177
Vero = assay: Cytotoxicity against African green monkey Vero cells assessed as reduction in cell viability after 72 hrs by MTT assay; format: cell-based; settings: Chlorocebus sabaeus
[2] = test system: Mycobacterium tuberculosis; format: functional; settings: H37Ra ATCC 25177; remark: listed apart in the source
[3] = test system: Mycobacterium tuberculosis; assay: Antitubercular activity against Mycobacterium tuberculosis H37Rv assessed as inhibition of visible growth after 7 days by microbroth dilution method; format: functional; settings: 168 h
[4] = test system: Mycobacterium tuberculosis; assay: microbe, parasite or virus in culture; settings: H37Ra ATCC 25177
Description: Antitubercular activity against Mycobacterium tuberculosis H37Ra ATCC 25177

[5] = Aqueous solubility in water at room temperature sonicated for 30 mins followed by overnight incubation by HPLC analysis; format: physicochemical
Staphylococcus aureus [6] = assay: Antibacterial activity against Staphylococcus aureus ATCC 6538; format: functional
Staphylococcus aureus [7] = assay: Antibacterial activity against Staphylococcus aureus ATCC 6538 at 20 uM relative to control; format: functional
[8] = test system: Mycobacterium tuberculosis; format: functional; settings: H37Ra ATCC 25177; remark: listed apart in the source

Row | SMILES | inhibition at 1 µM [1] | IC50 (Vero) | inhibition at 10 µM [2] | MIC [3] | MIC90 [4] | solubility at 0.5 h [5] | MIC (Staphylococcus aureus [6]) | inhibition at 20 µM (Staphylococcus aureus [7]) | inhibition at 20 µM [8]
1 | O=C(Nc1nc(-c2c(F)cc(F)cc2F)cs1)c1ccc([N+](=O)[O-])o1 | -4.1% | 19.9 µM | -10.1% | – | – | – | – | – | –
2 | COc1ccc(-c2csc(NC(=O)c3ccc([N+](=O)[O-])o3)n2)cc1 | -8.3% | 63 µM | 99.3% | – | – | – | – | – | –
3 | O=[N+]([O-])c1ccc(C2=NOC(c3ccc(N4CCC(Oc5ccc(OC(F)(F)F)cc5)CC4)cc3)C2)o1 (stereo unspecified) | – | – | – | 0.024 µg/mL (≈ 0.0464 µM) | – | – | – | – | –
4 | O=C(Nc1nc(-c2cccc(NS(=O)(=O)Cc3ccccc3)c2)cs1)c1ccc([N+](=O)[O-])o1 | 93.9% | 59.3 µM | – | – | 0.61 µg/mL (≈ 1.26 µM) | 0.48 µg/mL (≈ 0.991 µM) | 1.52 µg/mL (≈ 3.14 µM) | – | –
5 | COc1ccc(C(=O)Nc2cccc(-c3csc(NC(=O)c4ccc([N+](=O)[O-])o4)n3)c2)cc1 | -2.7% | – | – | – | – | – | – | – | –
6 | O=C(Nc1nc(-c2cccc(Cl)c2)cs1)c1ccc([N+](=O)[O-])o1 | 40.5% | 43.7 µM | 99.2% | – | – | – | – | – | –
7 | O=C(Nc1nc(-c2cccc(NC(=O)C3CCCC3)c2)cs1)c1ccc([N+](=O)[O-])o1 | 0.2% | – | – | – | – | – | – | – | –
8 | Cc1cc(C)c(-c2csc(NC(=O)c3ccc([N+](=O)[O-])o3)n2)c(C)c1 | 0.9% | 30.4 µM | -4.3% | – | – | – | – | – | –
9 | CS(=O)(=O)Nc1cccc(-c2csc(NC(=O)c3ccc([N+](=O)[O-])o3)n2)c1 | -4.1% | < 2.81 µM | 82.1% | – | – | – | – | – | –
10 | O=C(Nc1nc(-c2cccc(NC(=O)C3CC3)c2)cs1)c1ccc([N+](=O)[O-])o1 | 99.3% | 35.7 µM | 99.6% | – | 0.5 µg/mL (≈ 1.26 µM) | 0.47 µg/mL (≈ 1.18 µM) | 2.49 µg/mL (≈ 6.25 µM) | – | –
11 | CC(C)(C)OC(=O)Nc1cccc(-c2csc(NC(=O)c3ccc([N+](=O)[O-])o3)n2)c1 | 40% | – | – | – | – | – | – | – | –
12 | O=C(Nc1cccc(-c2csc(NC(=O)c3ccc([N+](=O)[O-])o3)n2)c1)c1ccccc1 | 98.9% | 50.2 µM | 99.5% | – | 0.27 µg/mL (≈ 0.621 µM) | 1.27 µg/mL (≈ 2.92 µM) | 1.36 µg/mL (≈ 3.13 µM) | – | –
13 | COc1cccc(-c2csc(NC(=O)c3ccc([N+](=O)[O-])o3)n2)c1 | 68.8% | 58.7 µM | 100% | – | – | – | – | 99.5% | 99.5%
14 | CCOc1cccc(-c2csc(NC(=O)c3ccc([N+](=O)[O-])o3)n2)c1 | 95.7% | > 90 µM | 99.4% | – | 0.9 µg/mL (≈ 2.5 µM) | 0.34 µg/mL (≈ 0.946 µM) | 4.49 µg/mL (≈ 12.5 µM) | – | –
15 | COc1cccc(-c2csc(NC(=O)c3ccc(N)o3)n2)c1 | 5.2% | – | – | – | – | – | – | – | –
16 | Nc1cccc(-c2csc(NC(=O)c3ccc([N+](=O)[O-])o3)n2)c1 | -1.1% | – | – | – | – | – | – | – | –

Row | SMILES | inhibition at 1 µM [1] | IC50 (Vero) | inhibition at 10 µM [2] | MIC [3] | MIC90 [4] | solubility at 0.5 h [5] | MIC (Staphylococcus aureus [6]) | inhibition at 20 µM (Staphylococcus aureus [7]) | inhibition at 20 µM [8]
17 | COc1ccccc1-c1csc(NC(=O)c2ccc([N+](=O)[O-])o2)n1 | -3% | 42 µM | 99.5% | – | – | – | – | – | –
18 | O=C(Nc1nc(-c2cccc(Br)c2)cs1)c1ccc([N+](=O)[O-])o1 | 70.4% | 71 µM | 98.9% | – | – | – | – | – | –
19 | COc1cccc(-c2csc(NC(=O)c3ccc([N+](=O)[O-])cc3)n2)c1 | -0.4% | > 90 µM | -1.5% | – | – | – | – | – | –
20 | CC(C)Oc1cccc(-c2csc(NC(=O)c3ccc([N+](=O)[O-])o3)n2)c1 | 97.8% | 69.5 µM | 99.2% | – | 0.47 µg/mL (≈ 1.26 µM) | 0.27 µg/mL (≈ 0.723 µM) | 4.67 µg/mL (≈ 12.5 µM) | – | –
21 | O=C(Nc1nc(-c2cccc(NC(=O)C3CCC3)c2)cs1)c1ccc([N+](=O)[O-])o1 | 1.9% | – | – | – | – | – | – | – | –
22 | O=C(Nc1nc(-c2ccccc2)cs1)c1ccc([N+](=O)[O-])o1 | 37.2% | 41.7 µM | 99.5% | – | – | – | – | – | –
23 | CC(=O)Nc1cccc(-c2csc(NC(=O)c3ccc([N+](=O)[O-])o3)n2)c1 | 40.6% | 57.6 µM | 99.4% | – | – | – | – | – | –
24 | O=C(Nc1nc(-c2cccc(NC(=O)C3CCCCC3)c2)cs1)c1ccc([N+](=O)[O-])o1 | 98.9% | 21.9 µM | 99.1% | – | 0.28 µg/mL (≈ 0.636 µM) | 3.46 µg/mL (≈ 7.86 µM) | 2.75 µg/mL (≈ 6.24 µM) | – | –
25 | O=C(Nc1cccc(-c2csc(NC(=O)c3ccc([N+](=O)[O-])o3)n2)c1)c1cccc(C(F)(F)F)c1 | 13.7% | – | – | – | – | – | – | – | –
26 | O=C(Nc1nc(-c2cccc(C(F)(F)F)c2)cs1)c1ccc([N+](=O)[O-])o1 | 67% | 23.9 µM | 98.6% | – | – | – | – | – | –
27 | O=C(Nc1cccc(-c2csc(NC(=O)c3ccc([N+](=O)[O-])o3)n2)c1)c1ccc(F)cc1 | 39.8% | – | – | – | – | – | – | – | –
28 | O=C(Nc1nc(-c2cccc(OC3CCCC3)c2)cs1)c1ccc([N+](=O)[O-])o1 | 97.9% | 81.1 µM | 99.3% | – | 1 µg/mL (≈ 2.5 µM) | 0.027 µg/mL (≈ 0.0676 µM) | 4.99 µg/mL (≈ 12.5 µM) | – | –
29 | O=C(Nc1nc(-c2cccc(F)c2)cs1)c1ccc([N+](=O)[O-])o1 | 95.7% | 51.6 µM | 99.6% | – | 0.83 µg/mL (≈ 2.49 µM) | 14.8 µg/mL (≈ 44.5 µM) | 4.17 µg/mL (≈ 12.5 µM) | – | –
30 | COc1cccc(-c2csc(NC(=O)c3ccco3)n2)c1 | 1.9% | > 90 µM | -0.9% | – | – | – | – | – | –
31 | O=C(O)c1cn(C2CC2)c2cc(N3CCNCC3)c(F)cc2c1=O [CIPROFLOXACIN] | 99.6% | – | 99.7% | – | 1.04 µg/mL (≈ 3.14 µM) | – | 0.26 µg/mL (≈ 0.785 µM) | – | –

From ChEMBL document CHEMBL3817779, “Identification of novel 2-aminothiazole conjugated nitrofuran as antitubercular and antibacterial agents” (Bioorg Med Chem Lett, 2016)
